# According to the supplement of paper PMC10307832:
# Experiments:
# Experiment in all cases: relative viability (nuclei count vs DMSO), 5 days (fraction); higher = more cells survive
# [1] = compound: CS(=O)(=O)CCNCc1ccc(-c2ccc3ncnc(Nc4ccc(OCc5cccc(F)c5)c(Cl)c4)c3c2)o1 [Lapatinib] + CCNC(=O)c1noc(-c2cc(C(C)C)c(O)cc2O)c1-c1ccc(CN2CCOCC2)cc1 [Luminespib] (partner 0.01 µM)
# Outline: (§1)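 Relative viability equals treated-well nuclei counts divided by vehicle-well nuclei counts. Counts came from 4× images of lung cancer cell lines grown in 1536-well plates for 5 days after pin-tool dosing on the day after seeding. Dosing used one drug alone or a fixed anchor-drug dose plus five library-drug doses (not always all listed) in √10 steps, and values are medians of duplicate plates.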
# [2] = compound: CC1=NC=CC(=C1)C2=CC=C(C=C2)CC(=O)NC3=CC=C(C=C3)C4=CN=CC=C4 [Wnt-C59] + CC(=O)c1c(C)c2cnc(Nc3ccc(N4CCNCC4)cn3)nc2n(C2CCCC2)c1=O [Palbociclib] (partner 0.5 µM)
# Outline: as §1
# [3] = compound: CS(=O)(=O)CCNCc1ccc(-c2ccc3ncnc(Nc4ccc(OCc5cccc(F)c5)c(Cl)c4)c3c2)o1 [Lapatinib] + Nc1ncn([C@H]2C[C@H](O)[C@@H](CO)O2)c(=O)n1 [Decitabine] (partner 2 µM)
# Outline: as §1
# [4] = compound: CS(=O)(=O)CCNCc1ccc(-c2ccc3ncnc(Nc4ccc(OCc5cccc(F)c5)c(Cl)c4)c3c2)o1 [Lapatinib] + CC1(C)CCC(c2ccc(Cl)cc2)=C(CN2CCN(c3ccc(C(=O)NS(=O)(=O)c4ccc(N[C@H](CCN5CCOCC5)CSc5ccccc5)c(S(=O)(=O)C(F)(F)F)c4)cc3)CC2)C1 [Navitoclax] (partner 0.5 µM)
# Outline: as §1
Cell Line,relative viability ([1]; first compound 0.06325 µM),relative viability ([1]; first compound 0.2 µM),relative viability ([1]; first compound 0.6325 µM),relative viability ([1]; first compound 2 µM),relative viability ([2]; first compound 0.001 µM),relative viability ([2]; first compound 0.01 µM),relative viability ([2]; first compound 0.03162 µM),relative viability ([2]; first compound 0.1 µM),relative viability ([3]; first compound 0.02 µM),relative viability ([3]; first compound 0.2 µM),relative viability ([3]; first compound 0.6325 µM),relative viability ([3]; first compound 2 µM),relative viability ([4]; first compound 0.06325 µM),relative viability ([4]; first compound 0.2 µM),relative viability ([4]; first compound 0.6325 µM),relative viability ([4]; first compound 2 µM),relative viability ([1]; first compound 0.02 µM),relative viability ([3]; first compound 0.06325 µM),relative viability ([4]; first compound 0.02 µM)
NCI-H441,0.299,0.278,0.282,0.322,0.265,0.206,0.247,0.237,0.239,0.268,0.266,0.214,0.223,0.94,0.514,0.604,–,–,–
NCI-H460,0.035,0.0347,0.0312,0.026,0.185,0.145,0.207,0.147,0.429,0.542,0.435,0.461,1.08,1.08,1.11,1.1,0.0268,0.488,0.966
NCI-H520,0.226,0.26,0.242,0.233,0.244,0.208,0.239,0.222,0.433,0.572,0.529,0.575,1.06,1.08,1.25,0.972,0.21,0.494,0.951
NCI-H647,0.309,0.169,0.32,0.14,0.346,0.326,0.388,0.316,0.416,0.431,0.377,0.383,1.14,1.05,1.04,0.963,0.119,0.284,–
NCI-H727,–,0.285,0.278,0.431,0.607,0.678,0.627,0.733,0.756,0.915,0.915,0.917,0.341,0.401,0.4,0.32,–,–,0.388
NCI-H838,0.341,0.381,0.258,0.283,0.238,0.22,0.238,0.221,0.475,0.495,0.484,0.44,1.06,1.16,1.17,1,0.25,0.453,1.13
NCI-H1355,0.646,0.634,0.685,0.441,0.408,0.375,0.408,0.375,0.352,0.333,0.307,0.353,0.861,0.824,0.906,0.498,–,0.33,–
NCI-H1395,0.761,0.706,0.599,0.663,0.598,0.652,0.566,0.573,–,0.802,0.729,0.701,1.05,1.14,1.62,1.14,0.849,0.719,–
NCI-H1437,1.21,1.16,1.13,1.02,0.31,0.309,0.336,0.335,0.603,0.56,0.53,0.569,1.08,1.11,1.03,1,0.961,0.527,1.09
NCI-H1650,0.202,0.198,0.2,0.2,0.341,0.321,0.318,0.378,0.362,0.418,0.371,0.503,1.11,1.24,1.01,0.761,0.19,0.509,1.06
NCI-H1651,0.672,0.935,0.695,0.712,0.526,0.499,0.452,0.479,0.466,0.605,0.633,0.484,0.968,0.971,0.899,0.906,0.712,0.608,1.05
NCI-H1666,0.955,0.922,0.725,0.502,0.658,0.654,0.616,0.647,0.599,0.709,0.641,0.58,0.724,0.737,0.464,0.217,0.869,0.72,0.794
NCI-H1734,0.196,0.189,0.186,0.174,0.382,0.334,0.36,0.364,–,0.506,0.552,0.432,0.691,0.802,0.88,0.778,0.22,0.435,–
NCI-H1755,0.423,0.349,0.579,0.378,0.454,0.447,0.438,0.416,0.738,0.706,0.735,0.749,1.02,0.97,1.01,0.936,0.421,0.752,0.974
NCI-H1792,–,0.413,0.403,0.255,0.673,0.655,0.672,0.656,–,0.555,0.509,0.388,0.589,0.52,0.586,0.645,–,–,0.615
NCI-H1793,0.33,0.174,0.158,0.143,0.296,0.259,0.355,0.321,–,0.418,0.424,0.44,–,–,0.329,0.292,–,0.404,–
NCI-H1915,0.847,0.832,0.707,0.848,0.516,0.521,0.473,0.572,–,0.248,0.253,0.255,0.822,0.752,0.79,0.81,–,0.284,–
NCI-H1944,0.435,0.623,0.552,0.522,0.343,0.328,0.334,0.339,0.421,0.431,0.394,0.414,–,0.885,0.864,0.789,0.723,0.41,–

Cell Line,relative viability ([1]; first compound 0.06325 µM),relative viability ([1]; first compound 0.2 µM),relative viability ([1]; first compound 0.6325 µM),relative viability ([1]; first compound 2 µM),relative viability ([2]; first compound 0.001 µM),relative viability ([2]; first compound 0.01 µM),relative viability ([2]; first compound 0.03162 µM),relative viability ([2]; first compound 0.1 µM),relative viability ([3]; first compound 0.02 µM),relative viability ([3]; first compound 0.2 µM),relative viability ([3]; first compound 0.6325 µM),relative viability ([3]; first compound 2 µM),relative viability ([4]; first compound 0.06325 µM),relative viability ([4]; first compound 0.2 µM),relative viability ([4]; first compound 0.6325 µM),relative viability ([4]; first compound 2 µM),relative viability ([1]; first compound 0.02 µM),relative viability ([3]; first compound 0.06325 µM),relative viability ([4]; first compound 0.02 µM)
NCI-H1975,0.122,0.239,0.212,0.206,0.605,0.601,0.607,0.554,0.374,0.389,0.397,0.312,1.09,1.04,0.918,0.867,0.256,0.413,0.993
NCI-H1993,–,0.737,0.749,0.476,0.694,0.648,0.663,0.602,0.68,0.555,0.64,0.462,–,0.618,0.69,0.51,0.824,–,0.831
NCI-H2009,1.09,1.08,0.931,0.984,0.231,0.149,0.198,0.239,0.383,0.342,0.353,0.357,1.21,1.21,1.17,1.14,0.953,0.4,1.11
NCI-H2023,0.593,0.723,0.751,0.619,0.389,0.4,0.399,0.371,0.22,0.224,0.235,0.223,0.885,0.894,1,0.77,0.696,0.229,0.95
NCI-H2085,0.402,0.396,0.447,0.322,0.459,0.425,0.477,0.471,0.579,0.512,0.521,0.477,0.925,0.987,1.01,0.805,–,0.528,1.06
NCI-H2087,0.169,0.169,0.162,0.161,0.228,0.212,0.245,0.23,0.26,0.251,0.228,0.234,0.96,1.06,1,0.962,–,0.164,0.932
NCI-H2126,0.729,0.833,0.859,0.775,0.378,0.36,0.35,0.36,0.609,0.593,0.548,0.44,0.799,0.764,0.806,0.739,–,0.52,–
NCI-H2170,0.385,0.433,0.462,0.223,0.393,0.397,0.416,0.367,0.503,0.477,0.429,0.182,0.393,0.287,0.218,0.184,0.664,0.459,0.546
NCI-H2347,0.156,0.638,0.523,0.361,0.437,0.445,0.484,0.417,0.573,0.642,0.605,0.599,0.807,0.826,0.731,0.769,–,0.514,0.548
NCI-H2405,0.469,0.52,0.567,0.467,0.516,0.506,0.498,0.473,–,–,0.709,0.616,0.769,0.868,0.881,0.72,0.696,0.602,–
NCI-H3122,0.0758,0.0797,0.0807,0.0854,0.183,0.201,0.22,0.186,0.426,0.376,0.456,0.421,1,1.01,0.968,1.01,0.103,0.364,1.01
PC-3 [JPC-3],0.665,0.648,0.722,0.477,0.498,0.532,0.505,0.512,–,–,0.954,0.598,0.797,0.779,0.885,0.689,0.74,0.786,–
PC-14,0.147,0.12,0.192,0.149,0.688,0.496,0.552,0.506,0.271,0.246,0.223,0.193,0.991,0.958,0.985,0.839,–,0.277,0.956
RERF-LC-KJ,1.25,1.16,1.2,0.797,1.22,1.07,1.2,1.08,0.679,0.749,0.645,0.499,0.894,0.755,0.888,0.592,1.13,0.62,0.933
SK-LU-1,0.223,0.238,0.175,0.2,0.356,0.343,0.423,0.359,0.709,0.686,0.609,0.618,0.831,0.747,0.876,1.29,0.176,0.558,–
SK-MES-1,0.665,0.625,0.482,0.326,0.29,0.321,0.316,0.339,0.429,0.37,0.306,0.311,–,1.25,0.783,0.573,0.738,0.364,1.13
SW 1573,0.23,0.387,0.233,0.146,0.413,0.368,0.466,0.408,0.492,0.565,0.633,0.489,0.974,1.16,0.92,0.882,0.293,0.437,0.902
